What was measured:
[1] = tested on: OVCAR-4, SKOV-3, OVCAR-3, OVCAR-8, CaOV3-5, and IGROV-1; experiment: Cell Titer Glo proliferation assay, K-RAS wild-type OvCa lines; format: cell-based, human; settings: other six OvCa cell lines of the panel, WT KRAS, 72 hours
From the text: KRAS mutation status, as reported by the Sanger Wellcome Trust, is noted. Results shown are typical of three or more independent experiments. Grey symbols indicate data for K-RAS mutant (mt) cell lines OVCAR-5 and MDAH2774. Black symbols indicate data for K-RAS wild-type (wt) cell lines OVCAR-4, SKOV-3, OVCAR-3, OVCAR-8, CaOV3-5, and IGROV-1. Cell Lines and Culture. Human cancer cell lines, were obtained from American Type Culture Collection (ATCC, Manassas, Va.), or the following additional indicated sources, and cultured in media as described. […] The basis of the assay is a luminescent quantitation of ATP present in a cell culture plate well. […] The assay utilizes a substrate that binds ATP to produce a luminescent signal, which can be read on a luminometer. […] Results were calculated as a fraction of the DMSO controlled cells.

Colo205 tumors = experiment: Tumor xenograft study; settings: treatment in vivo for 10-14 days
Akt = experiment: Phosphorylation of Akt (pAKT levels); format: cell-based; settings: OSI-906, in the presence or absence of pactitaxel (100, 30, 10, 3, 1 nM)
Protocol: The dotted line in the plot represents the calculated theoretical expectation if the combination was additive in nature, and was determined using the Bliss model for additivity. […] C.
The dotted line in the plot represents the calculated theoretical result if the combination was additive in nature, and was determined using the Bliss model for additivity.

BT549 = experiment: Cell Titer Glo proliferation assay, 88 cell line panel; format: cell-based, human; settings: BT549 breast cancer, PTEN mutant, 72 hours
Protocol: (§1) Proliferation Assay. […] The basis of the assay is a luminescent quantitation of ATP present in a cell culture plate well. In essence, the greater the number of viable cells in the well, the greater the level of ATP present. The assay utilizes a substrate that binds ATP to produce a luminescent signal, which can be read on a luminometer. Unless otherwise noted, the manufacturer's instructions were followed exactly. Briefly, on Day 1, cells were plated in 120 μl of 10% serum-containing growth media at a density of 4000 cells/well in a white polystyrene 96 well assay plate. […] After 72 h incubation with the inhibitor, the cells were assayed. Results were calculated as a fraction of the DMSO controlled cells.
(§2) This included cell lines representing ovarian cancer (A2780 and EFO-27), SCCHN (HSC-4), SCLC (NCI-H446), CRC (KM12), lymphoma (MC116), breast cancer (BT549 and HCC70), and prostate cancer (PC3).

MC116 = experiment: as above; format: cell-based, human; settings: MC116 lymphoma, PTEN mutant, 72 hours
Protocol: as §1, §2

EFO-27 = experiment: as above; format: cell-based, human; settings: EFO-27 ovarian cancer, PTEN mutant, 72 hours
Protocol: as §1, §2

H460 tumors = experiment: Tumor xenograft study; settings: treatment in vivo for 10-14 days
[2] = tested on: broad panel (n=116) of additional RTKs and other protein kinases; settings: at 1 μM; cited from earlier work
SKNAS tumors = experiment: Tumor xenograft study; settings: treatment in vivo for 10-14 days
H295R tumors = experiment: Tumor xenograft study; settings: treatment in vivo for 10-14 days
[3] = tested on: MDAH-2774 ovarian tumor cells; experiment: Caspase 3/7 Glo apoptosis assay; format: cell-based, human; settings: with 10 nM pactitaxel
Protocol: Measurement of apoptosis: Induction of apoptosis as measured by increased Caspase 3/7 activity was determined using the Caspase 3/7 Glo assay (Promega Corporation, Madison, Wis.). Cell lines were seeded at a density of 3000 cells per well in a 96-well plate. 24 hours after plating, cells were dosed with compounds. The signal for Caspase 3/7 Glo was determined 24 hours after dosing. The caspase 3/7 activity was normalized to cell number per well, using a parallel plate treated with Cell Titer Glo (Promega Corporation, Madison, Wis.). Signal for each well was normalized using the following formula: Caspase 3/7 Glo luminescence units/Cell Titer Glo fraction of DMSO control. All graphs were generated using PRISM® software (Graphpad Software, San Diego, Calif.).

C[C@]1(O)C[C@@H](c2nc(-c3ccc4ccc(-c5ccccc5)nc4c3)c3c(N)nccn32)C1 [OSI-906, cis-3-[8-amino-1-(2-phenyl-quinolin-7-yl)-imidazo[1,5-a]pyrazin-3-yl]-1-methyl-cyclobutanol]
sensitivity of proliferation [1]: relatively insensitive | % TGI (tumor growth inhibition) (Colo205 tumors): 90% | phosphorylation of Akt (pAKT levels) (Akt): decrease | sensitivity to OSI-906 (BT549): insensitive (insensitive (EC50>10 μM)) | sensitivity to OSI-906 (MC116): insensitive (insensitive (EC50>10 μM)) | sensitivity to OSI-906 (EFO-27): insensitive (insensitive (EC50>10 μM)) | % TGI (tumor growth inhibition) (H460 tumors): < 30% | inhibition of additional kinases [2]: < 50% | % TGI (tumor growth inhibition) (SKNAS tumors): 71% | % TGI (tumor growth inhibition) (H295R tumors): 85% | induction of apoptosis [3]: enhances the induction of apoptosis

— US20110217309A1, “BIOLOGICAL MARKERS PREDICTIVE OF ANTI-CANCER RESPONSE TO INSULIN-LIKE GROWTH FACTOR-1 RECEPTOR KINASE INHIBITORS” (priority 2010, published 2011)
